Assay results: ChEMBL document CHEMBL3217464, “Antimicrobial activity and mode of action of novel, N-terminal tagged tetra-peptidomimetics” (Medchemcomm, 2013)
≈ marks a conversion by molar mass, not a printed value. Calls of active or inactive are those of the source. The rule behind the calls is not given here. Where a SMILES comes first, the peptide text is derived from it. [ ]: non-standard residue; d: D form. The star is where a group is joined. Benzoyl(4-(biphenyl-4-yl)) = O=C(c1ccc(-c2ccc(-c3ccccc3)cc2)cc1)*; Linoleoyl = CCCCC/C=C\C/C=C\CCCCCCCC(=O)*; NMeL = CN[C@@H](CC(C)C)C(=O)O; NMeV = CN[C@H](C(=O)O)C(C)C; X1 = Nc1ccc(/C=C/C(=O)*)cc1; Orn = NCCC[C@H](N)C(=O)O; 2Abz = Nc1ccccc1C(=O)O

How the values were obtained:
[1] = Induction of membrane permeabilization in POPC/POPG (7:3 w/w) LUVs assessed as graded leakage of encapsulated calcein dye at 41.01 ug/ml after 5 mins by spectrofluorimeter analysis
[2] = test system: Staphylococcus aureus; experiment: Induction of membrane depolarization in methicillin-resistant Staphylococcus aureus ATCC 33591 at 12.5 ug/ml by DiSC3(5) dye by fluorimetric assay; type: functional
[3] = test system: Bacillus subtilis; experiment: Antibacterial activity against Bacillus subtilis ATCC 6633 after 18 hrs by CLSI microdilution broth assay; type: functional; details: ATCC 6633, 18 h
[4] = test system: Escherichia coli; experiment: Antibacterial activity against Escherichia coli ATCC 11775 after 18 hrs by CLSI microdilution broth assay; type: functional; details: ATCC 11775, 18 h
[5] = test system: Acinetobacter baumannii; experiment: Antibacterial activity against Acinetobacter baumannii ATCC 19606 after 18 hrs by CLSI microdilution broth assay; type: functional; details: ATCC 19606, 18 h
[6] = test system: Staphylococcus aureus; experiment: Antibacterial activity against Staphylococcus aureus ATCC 29213 after 18 hrs by CLSI microdilution broth assay; type: functional; details: ATCC 29213, 18 h
[7] = test system: Lipid bilayer; experiment: Binding affinity to bacterial membrane mimic POPC/POPG (7:3 w/w) SUVs assessed as blue shift in tryptophan emission maxima at 3 uM after 2 mins by spectrofluorimeter analysis
[8] = test system: Pseudomonas aeruginosa; experiment: Antibacterial activity against Pseudomonas aeruginosa ATCC 25668 after 18 hrs by CLSI microdilution broth assay; type: functional; details: ATCC 25668, 18 h
[9] = Hemolytic activity against human erythrocytes assessed as hemoglobin release up to 500 ug/ml after 1 hr by ELISA; type: ADME, cell-based; details: erythrocyte
[10] = test system: Lipid bilayer; experiment: Binding affinity to mammalian membrane mimic POPC SUVs assessed as blue shift in tryptophan emission maxima at 3 uM after 2 mins by spectrofluorimeter analysis
[11] = test system: Staphylococcus aureus; experiment: Antibacterial activity against methicillin-resistant Staphylococcus aureus ATCC 33591 after 18 hrs by CLSI microdilution broth assay; type: functional; details: ATCC 33591, 18 h
[12] = test system: Lipid bilayer; experiment: Binding affinity to mammalian membrane mimic POPC SUVs assessed as red shift in tryptophan emission maxima at 3 uM after 2 mins by spectrofluorimeter analysis
[13] = Induction of membrane permeabilization in POPC/POPG (7:3 w/w) LUVs assessed as leakage of encapsulated calcein dye at 14.01 ug/ml after 5 mins by spectrofluorimeter analysis
[14] = Induction of membrane permeabilization in POPC/POPG (7:3 w/w) LUVs assessed as burst release of calcein dye at 5.68 ug/ml after 5 mins by spectrofluorimeter analysis
[15] = test system: Aspergillus fumigatus; experiment: Antifungal activity against Aspergillus fumigatus assessed as growth inhibition up to 125 ug/ml by disk diffusion method; type: functional, organism-based
[16] = test system: Candida albicans; experiment: Antifungal activity against Candida albicans assessed as growth inhibition up to 125 ug/ml by disk diffusion method; type: functional, organism-based
[17] = test system: Staphylococcus aureus; experiment: Induction of membrane depolarization in methicillin-resistant Staphylococcus aureus ATCC 33591 by DiSC3(5) dye by fluorimetric assay; type: functional, organism-based
[18] = Hemolytic activity against human erythrocytes assessed as hemoglobin release at 500 ug/ml after 1 hr by ELISA; type: ADME, cell-based, Erythrocyte; details: read-out: Activity
[19] = Stability of the compound assessed as compound digestion at 100 ug/ml after 10 hrs by RP-HPLC analysis in presence of proteinase-K; type: ADME; details: read-out: Drug degradation
[20] = test system: Staphylococcus aureus; experiment: Induction of morphological alterations in methicillin-resistant Staphylococcus aureus ATCC 33591 assessed as rough and damaged cell surface and formation of blebs and massive rupturing at 5XMIC after 30 mins by scanning electron microscopy; type: functional, organism-based
[21] = test system: Lipid bilayer; experiment: Binding affinity to bacterial membrane mimic PC:PG (7:3 w/w) LUVs by circular dichroism spectrophotometry
[22] = test system: Staphylococcus aureus; experiment: Induction of membrane depolarization in methicillin-resistant Staphylococcus aureus ATCC 33591 at 7.5 ug/ml by DiSC3(5) dye by fluorimetric assay; type: functional
[23] = Stability of the compound assessed as compound digestion at 100 ug/ml after 24 hrs by RP-HPLC analysis in presence of proteinase-K; type: ADME; details: read-out: Drug degradation
[24] = Binding affinity to gram-negative outer membrane LPS micelles by circular dichroism spectrophotometry
[25] = test system: Staphylococcus aureus; experiment: Induction of morphological alterations in methicillin-resistant Staphylococcus aureus ATCC 33591 assessed as cell clustering and ruptured membrane at 5XMIC after 30 mins by scanning electron microscopy; type: functional, organism-based

Row | Structure (SMILES) | Activity [2] | MIC [3] | MIC [4] | MIC [5] | MIC [6] | Activity [7] | MIC [8] | Activity [9] | Tryptophan emission maximum blue shift [10] | MIC [11] | Activity [14] | also measured
1 | CN[C@H](C(=O)N[C@@H](CCCN)C(=O)N[C@@H](CCCN)C(=O)N[C@@H](Cc1c[nH]c2ccccc12)C(=O)N[C@@H](Cc1c[nH]c2ccccc12)C(N)=O)C(C)C (H-[NMeV][Orn][Orn]WW-NH2) | 17.2% | 128 µg/mL (≈ 175 µM) | 256 µg/mL (≈ 350 µM) | 64 µg/mL (≈ 87.6 µM) | 128 µg/mL (≈ 175 µM) | 3 nm | 128 µg/mL (≈ 175 µM) | Non-toxic | 0 nm | 256 µg/mL (≈ 350 µM) | – | Activity [1]: 41.8%
2 | CN[C@@H](CC(C)C)C(=O)N[C@@H](CCCN)C(=O)N[C@@H](CCCN)C(=O)N[C@@H](Cc1c[nH]c2ccccc12)C(=O)N[C@@H](Cc1c[nH]c2ccccc12)C(N)=O (H-[NMeL][Orn][Orn]WW-NH2) | 18.9% | 64 µg/mL (≈ 85.9 µM) | 64 µg/mL (≈ 85.9 µM) | 128 µg/mL (≈ 172 µM) | 128 µg/mL (≈ 172 µM) | 4 nm | 128 µg/mL (≈ 172 µM) | Non-toxic | 1 nm | 256 µg/mL (≈ 344 µM) | – | –
3 | NCCC[C@H](NC(=O)[C@@H](N)CCCN)C(=O)N[C@@H](Cc1c[nH]c2ccccc12)C(=O)N[C@@H](Cc1c[nH]c2ccccc12)C(N)=O (H-[Orn][Orn]WW-NH2) | 5.6% | 512 µg/mL (≈ 829 µM) | 512 µg/mL (≈ 829 µM) | 512 µg/mL (≈ 829 µM) | 128 µg/mL (≈ 207 µM) | 3 nm | 256 µg/mL (≈ 414 µM) | Non-toxic | 2 nm | – | – | –
4 | CN(C)[C@@H]1C(O)=C(C(N)=O)C(=O)[C@@]2(O)C(O)=C3C(=O)c4c(O)cccc4[C@@](C)(O)[C@H]3C[C@@H]12 [TETRACYCLINE] | – | – | 0.3 µg/mL (≈ 0.675 µM) | – | 0.3 µg/mL (≈ 0.675 µM) | – | 0.3 µg/mL (≈ 0.675 µM) | – | – | > 50 µg/mL | – | –
5 | NCCC[C@H](NC(=O)/C=C/c1ccc(N)cc1)C(=O)N[C@@H](CCCN)C(=O)N[C@@H](Cc1c[nH]c2ccccc12)C(=O)N[C@@H](Cc1c[nH]c2ccccc12)C(N)=O (X1-[Orn][Orn]WW-NH2) | 16.8% | 32 µg/mL (≈ 41.9 µM) | 32 µg/mL (≈ 41.9 µM) | 64 µg/mL (≈ 83.9 µM) | 64 µg/mL (≈ 83.9 µM) | 2 nm | 16 µg/mL (≈ 21 µM) | Non-toxic | – | 128 µg/mL (≈ 168 µM) | 58.5% | Activity [12]: 2 nm; Activity [13]: 68.3%
6 | NCCC[C@H](NC(=O)c1ccccc1N)C(=O)N[C@@H](CCCN)C(=O)N[C@@H](Cc1c[nH]c2ccccc12)C(=O)N[C@@H](Cc1c[nH]c2ccccc12)C(N)=O (H-[2Abz][Orn][Orn]WW-NH2) | 8.9% | 64 µg/mL (≈ 86.9 µM) | 64 µg/mL (≈ 86.9 µM) | 64 µg/mL (≈ 86.9 µM) | 64 µg/mL (≈ 86.9 µM) | 5 nm | 16 µg/mL (≈ 21.7 µM) | Non-toxic | 1 nm | 64 µg/mL (≈ 86.9 µM) | – | Activity [1]: 69.9%
7 | NCCC[C@H](NC(=O)c1ccc(-c2ccc(-c3ccccc3)cc2)cc1)C(=O)N[C@@H](CCCN)C(=O)N[C@@H](Cc1c[nH]c2ccccc12)C(=O)N[C@@H](Cc1c[nH]c2ccccc12)C(N)=O ({Benzoyl(4-(biphenyl-4-yl))}-[Orn][Orn]WW-NH2) | – | 2 µg/mL (≈ 2.29 µM) | 2 µg/mL (≈ 2.29 µM) | 2 µg/mL (≈ 2.29 µM) | 2 µg/mL (≈ 2.29 µM) | 30 nm | 4 µg/mL (≈ 4.58 µM) | – | 2 nm | 8 µg/mL (≈ 9.15 µM) | 76.4% | growth inhibition (GI) [15]: inactive; growth inhibition (GI) [16]: inactive; Activity [17]: Dose-dependent effect; hemolysis at 1 h, 500 ug/ml [18]: 50%; metabolised at 10 h, 100 ug/ml [19]: 14%; Activity [20]: Active; Activity [21]: Active; Activity [22]: 81%
8 | CCCCC/C=C\C/C=C\CCCCCCCC(=O)N[C@@H](CCCN)C(=O)N[C@@H](CCCN)C(=O)N[C@@H](Cc1c[nH]c2ccccc12)C(=O)N[C@@H](Cc1c[nH]c2ccccc12)C(N)=O (Linoleoyl-[Orn][Orn]WW-NH2) | 100% | 4 µg/mL (≈ 4.54 µM) | 2 µg/mL (≈ 2.27 µM) | 2 µg/mL (≈ 2.27 µM) | 2 µg/mL (≈ 2.27 µM) | 10 nm | 2 µg/mL (≈ 2.27 µM) | Non-toxic | 2 nm | 4 µg/mL (≈ 4.54 µM) | 72.3% | growth inhibition (GI) [15]: inactive; metabolised at 24 h, 100 ug/ml [23]: 36%; growth inhibition (GI) [16]: inactive; Activity [24]: Active; Activity [17]: Dose-dependent effect; metabolised at 10 h, 100 ug/ml [19]: 17%; Activity [25]: Active; Activity [22]: 84%
